Experimental data taken from patent EP1146866B1, “A METHOD FOR TREATING PATIENTS WITH ACNE BY ADMINISTERING A CYCLIC GMP PDE INHIBITOR” (priority 1999, dated 2000).

Experiments:
PDE5 = PDE5 (Homo sapiens, UniProt O76074); test: cGMP-specific PDE inhibition activity (3H cyclic GMP substrate); type: biochemical
Description: (§1) cGMP-specific phosphodiesterase activity can be determined using methods known in the art, such as a method using radioactive ^3H cyclic GMP (cyclic 3',5'-guanosine monophosphate) as the substrate for PDE5 enzyme (Thompson, W.J., Teraski, W.L., Epstein, P.M., Strada, S.J., Advances in Cyclic Nucleotide Research, 10:69-92, 1979. Using such techniques, the values of cGMP-specific inhibition set forth in Table 1 were determined for the compounds above: TABLE 1

PDE2 = PDE2 (Homo sapiens, UniProt O00408); test: cGMP-stimulated PDE inhibition activity; type: biochemical
Sequence of PDE2 (O00408 whole entry): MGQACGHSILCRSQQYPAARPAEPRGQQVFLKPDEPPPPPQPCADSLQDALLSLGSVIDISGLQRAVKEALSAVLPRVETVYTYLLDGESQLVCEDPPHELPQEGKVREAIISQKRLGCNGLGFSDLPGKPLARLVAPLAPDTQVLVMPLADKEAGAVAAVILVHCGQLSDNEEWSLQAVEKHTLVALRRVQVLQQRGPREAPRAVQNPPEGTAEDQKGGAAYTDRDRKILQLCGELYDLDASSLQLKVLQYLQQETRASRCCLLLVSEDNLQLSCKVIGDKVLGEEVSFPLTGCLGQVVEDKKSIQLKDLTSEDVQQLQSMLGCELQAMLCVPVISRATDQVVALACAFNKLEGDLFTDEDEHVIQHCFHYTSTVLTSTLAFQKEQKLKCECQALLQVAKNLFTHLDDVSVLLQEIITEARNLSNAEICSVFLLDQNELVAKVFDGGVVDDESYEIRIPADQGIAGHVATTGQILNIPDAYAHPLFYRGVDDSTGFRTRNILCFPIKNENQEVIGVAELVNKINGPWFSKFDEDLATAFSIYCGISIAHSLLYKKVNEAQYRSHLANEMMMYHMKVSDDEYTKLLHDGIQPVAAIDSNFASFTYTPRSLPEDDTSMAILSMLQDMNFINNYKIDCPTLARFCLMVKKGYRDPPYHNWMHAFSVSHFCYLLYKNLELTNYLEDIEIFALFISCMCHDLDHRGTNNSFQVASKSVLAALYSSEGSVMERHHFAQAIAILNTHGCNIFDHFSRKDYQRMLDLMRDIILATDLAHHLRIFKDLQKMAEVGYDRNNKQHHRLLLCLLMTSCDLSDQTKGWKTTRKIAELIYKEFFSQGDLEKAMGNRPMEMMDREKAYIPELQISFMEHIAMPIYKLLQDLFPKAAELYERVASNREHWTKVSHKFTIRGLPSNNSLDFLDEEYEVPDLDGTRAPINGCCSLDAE
Description: as §1
cGMP phosphodiesterase activity can be determined using the methods referenced in Example 5, above. Using such techniques, the IC50 value for the inhibition of PDE2 by the compound of Example 1, exisulind, was determined as shown in Table 2.

[1] = Clinical studies of exisulind for uses other than acne (tolerability); type: in vivo
Description: In studies with adult patients, patients with intact colons received exisulind at a dosage of 400 mg/day, and patients who had previously undergone a colectomy received exisulind at a dosage of 600 mg/day. In another study with adult patients, the patients received 500 mg/day of exisulind. In a study involving pediatric patients, the dosage of exisulind used ranged from 250 to 350 mg per day.
In these studies, exisulind is generally well tolerated in patients. […] The maximum tolerated dose (MTD) was determined to be 600 mg/day in patients with colectomies, and 400 mg/day in the group with intact colons. […] These elevations were completely reversible on stopping the drug. Additionally, after a patient with elevated liver enzymes stops receiving the drug for approximately one week, the patient can then safely resume treatment at the same or a lower therapeutic dose, i.e. the dosages mentioned above. The elevations seem to be dose related and have been seen mostly at doses above the maximum tolerated dose. […] Thirteen of those patients received exisulind for over three years.

acne vulgaris = test: Clinical results with a patient with acne vulgaris; type: in vivo, human
Description: A patient with acne vulgaris was given a pharmaceutical composition containing 125 mg of a cGMP-specific PDE inhibitor, exisulind (the compound of Example 1), twice daily for 8 weeks. […] Since the patient was tolerating that daily dose quite well, their dose of exisulind was increased to 150 mg twice daily, for an additional 8 weeks.
The pharmaceutical formulation for the 150 mg-containing pharmaceutical composition taken by this patient contained exisulind (150 mg), lactose monohydrate (207 mg), croscarmellose sodium (15 mg), colloidal silicon dioxide (1 mg), magnesium stearate (6.3 mg), and sodium lauryl sulfate (0.7 mg) encapsulated in a # 1 gelatin capsule. The exisulind was obtained from Zambon Group, S.p.A., of Milan, Italy. The pharmaceutical formulation for the 125 mg containing composition was formulated with less exisulind, and more excipients to fill the capsule.

| SMILES | inhibition at 10 µM (PDE5) [%] | IC50 (PDE2) [µM] | maximum tolerated dose (MTD) ([1]; group with intact colons) [mg/day] | liver function tests ([1]; human, in vivo) | side effects in clinical studies ([1]; human, in vivo) | side effects on extended treatment ([1]; human, in vivo) | maximum tolerated dose (MTD) ([1]; patients with colectomies) [mg/day] | patient's acne (acne vulgaris; 150 mg twice daily for an additional 8 weeks, end of second 8-week period) | adverse side effects reported by patient (acne vulgaris; after 125 mg then 150 mg twice daily, 8 weeks each) | manifestations of acne during continued treatment (acne vulgaris; continued on drug for six months) | patient's acne (intensity) (acne vulgaris; patient, 125 mg twice daily for 8 weeks) |
| --- | --- | --- | --- | --- | --- | --- | --- | --- | --- | --- | --- |
| COC(=O)CC1=C(C)/C(=C/c2ccc(S(C)(=O)=O)cc2)c2ccc(F)cc21 [Example 2, α-(1-p-Methylsulfonylbenzylidene)-2-Methyl-5-Fluoro-3-Indenyl -Acetic Acid Methyl Ester] | 50 | – | – | – | – | – | – | – | – | – | – |
| CC1=C(CCO)c2cc(F)ccc2/C1=C\c1ccc(S(C)(=O)=O)cc1 [Example 3, (Z)-5-Fluoro-2-Methyl-1-(4-Methylsulfonylbenzylidene)-1H-3-Indenyl-(2-Hydroxy) Ethane] | 80 | – | – | – | – | – | – | – | – | – | – |
| CC1=C(CC(=O)O)c2cc(F)ccc2/C1=C\c1ccc(S(C)(=O)=O)cc1 [Example 1, α-(1-p-Methylsulfonylbenzylidene)-2-Methyl-5-Fluoro-3-Indenyl-Acetic Acid] | 39 | 300 | 400 | moderate, reversible, asymptomatic elevation in liver function tests | no clinically relevant side effects reported | no such clinically significant side effects | 600 | disappeared completely | no adverse side effects | without any significant manifestations of acne | decrease noticeably in intensity |
